Data as given in US8629285B2, “Imidazole compounds that modulate HSP90 activity” (Synta Pharmaceuticals Corp., priority 2005, dated 2014).

System: Her2
Assay: Degradation of Her2 in BT-474 cells (Method 1, SDS-PAGE/immunoblot)
Type: cell-based, Human
Settings: 0.5 μM, overnight
Protocol: Human high-Her2 breast carcinoma BT474 (HTB-20), SK-BR-3 (HTB-30) and MCF-7 breast carcinoma (HTB-22) from American Type Culture Collection, VA, USA are grown in Dulbecco's modified Eagle's medium with 4 mM L-glutamine and antibiotics (100 IU/ml penicillin and 100 ug/ml streptomycine; GibcoBRL). To obtain exponential cell growth, cells are trypsinized, counted and seeded at a cell density of 0.5×10^6 cells/ml regularly, every 3 days. All experiments are performed on day 1 after cell passage.
BT-474 cells are treated with 0.5 μM, 2 μM, or 5 μM of 17AAG (a positive control) or 0.5 μM, 2 μM, or 5 μM of a compound of the invention overnight in DMEM medium. After treatment, each cytoplasmic sample is prepared from 1×10^6 cells by incubation of cell lysis buffer (#9803, cell Signaling Technology) on ice for 10 minutes. The resulting supernatant used as the cytosol fractions is dissolved with sample buffer for SDS-PAGE and run on a SDS-PAGE gel, blotted onto a nitrocellulose membrane by using semi-dry transfer. Non-specific binding to nitrocellulose is blocked with 5% skim milk in TBS with 0.5% Tween at room temperature for 1 hour, then probed with anti-Her2/ErB2 mAb (rabbit IgG, #2242, Cell Signaling) and anti-Tubulin (T9026, Sigma) as housekeeping control protein. […]

C=CCNC1=C2C[C@@H](C)C[C@H](OC)[C@H](O)[C@@H](C)/C=C(\C)[C@H](OC(N)=O)[C@@H](OC)/C=C\C=C(/C)C(=O)NC(=CC1=O)C2=O [17AAG]
degradation of Her2: partial degradation
